The values below come from patent US8772290B2, “Alpha-arylmethoxyacrylate derivative, preparation method thereof, and pharmaceutical composition containing same” (Oscotech Inc., priority 2010, dated 2014).

pIC50: −log10 of the molar value.

One assay concerns HIF. Put plainly: Assay for inhibitory activity against HIF activity (HIF1 luciferase reporter cell line). It counts as cell-based, human. The settings on record: Homo sapiens; HEK293 HIF1 reporter cell line, 1% oxygen, 6 hours, luciferase activity 50% inhibited. An outline of the steps: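 Stable HEK293 line carrying an HIF1-driven luciferase reporter, seeded 24 h before treatment with compound from 25 μM down to 20.4 fM. Cells were incubated 6 hours at 1% oxygen, then lysed; luciferase luminescence gave the IC50 (50% inhibition of luciferase activity).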
In general terms: A reporter such as luciferase makes a cellular process visible.

The test system of assay [1] is tumor-induced angiogenesis (HCT116 cells). In words: Assay for inhibitory activity against in vivo tumor-induced angiogenesis (intravital microscopy). Set-up: species or system BALB/c mice. As to conditions: 1 μmol in Matrigel with VEGF and HCT116 cells in abdominal window, four days, t-test p<0.01, FIGS. 4A and 4B. Here is the method:
The inhibitory activity of the compounds of the present invention against angiogenesis was examined in vivo using intravital microscopy. Titanium windows (diameter 19 mm, inner diameter 14 mm, thickness 0.7 mm) were implanted in the abdominal walls male BALB/c mice, 6-8 weeks old, which had been anesthetized. A mixture of 100 μL Matrigel™ 20 ng VEGF, 1×10^5 HCT116 or HCT116 cells, and 1 μmol compound 75 was inserted into the tissues inside the window which was then covered with a cover slip and fixed with a snap ring. Four days later, 50 μL of 25 mg/mL fluorescein isothiocyanate-labeled dextran (Mw 250,000 Sigma) was injected via the tail vein to examine angiogenesis. Mice were then placed on a Zeiss Axiovert™ 200M microscope with a filter set (440-475 nm, excitation wavelength; 530-550 nm, emission wavelength). Fluorescence images were recorded in each window by an electron-multiplying CCD camera (Photon Max™ 521, Princeton Instruments) and digitized for subsequent off-line analysis using the MetaMorph™ program (Universal Imaging). The angiogenesis was scored from 0 (least positive) to 5 (most positive). Observations and degree of angiogenesis are shown in FIGS. 4A and 4B, respectively. […] Accordingly, the compound of the present invention was identified to inhibit angiogenesis in vivo.

As usually defined, the pIC50 is −log10 of the IC50, conventionally taken in molar units.

On to `CO/C=C(/C(=O)OC)c1ccccc1COc1cccc(/C=N/OCCOc2ccccc2)c1` [Compound 75, (E)-methyl 2-(2-((3-((E)-(2-phenoxyethoxyimino)methyl)phenoxy)-methyl)phenyl)-3-methoxyacrylate], for which the negative logarithm of the IC50 (pIC50) with HIF is 6.82. The “degree of angiogenesis (score 0 to 5) versus HCT-116 group” value in assay [1] is “significant difference”. Regarding `CO/C=C(/C(=O)OC)c1ccccc1COc1cc(C)c(/C=N/OC2CCCC2)cc1C` [Compound 69, (E)-methyl 2-(2-((4-((E)-(cyclopentyloxyimino)methyl)-2,5-dimethylphenoxy)methyl)phenyl)-3-methoxyacrylate], the pIC50 with HIF is 7.52. The same measure, in the same setting: the result for `CCCO/N=C/c1ccc(OCc2ccccc2/C(=C\OC)C(=O)OC)c(C)c1` [Compound 32, (E)-methyl 2-(2-((2-methyl-4-((E)-(propoxyimino)methyl)phenoxy)-methyl)phenyl)-3-methoxyacrylate] reads 7.70; that for `CO/C=C(/C(=O)OC)c1ccccc1COc1cccc(OCCc2ccccc2)c1` [Compound 16, (E)-methyl 2-(2-((3-phenethoxyphenoxy)methyl)phenyl)-3-methoxyacrylate], 6.47.

`CO/C=C(/C(=O)OC)c1ccccc1COc1cc(C)c(/C(COC)=N/OC)cc1C` [Compound 80, (E)-methyl 3-methoxy-2-(2-((4-((Z)-2-methoxy-1-(methoxyimino)ethyl)-2,5-dimethylphenoxy)methyl)phenyl)acrylate]: in the assay with HIF, the pIC50 was 8.05. Same read-out and setting: the result for `CO/C=C(/C(=O)OC)c1ccccc1COc1cc(/C(C)=N/OCc2ccccc2)ccc1OC` [Compound 38, (E)-methyl 2-(2-((5-((E)-1-(benzyloxyimino)ethyl)-2-methoxyphenoxy)-methyl)phenyl)-3-methoxyacrylate] reads 5.78; that for `CO/C=C(/C(=O)OC)c1ccccc1COc1cc(O)cc(F)c1` [Compound 15, (E)-methyl 2-(2-((3-fluoro-5-hydroxyphenoxy)methyl)phenyl)-3-methoxyacrylate], 5.43; that for `CO/C=C(/C(=O)OC)c1ccccc1COc1cccc(OCC[N+]2([O-])CCOCC2)c1` [Compound 13, (E)-4-(2-(3-(2-(1,3-dimethoxy-3-oxoprop-1-en-2-yl)benzyloxy)phenoxy)-ethyl)morpholine 4-oxide], 5.00. In turn, `CO/C=C(/C(=O)OC)c1ccccc1COc1cccc(/C=N/Oc2ccccc2)c1` [Compound 47, (E)-methyl 2-(2-((3-((E)-1-(phenoxyimino)methyl)phenoxy)methyl)-phenyl)-3-methoxyacrylate] gave a pIC50 in the assay on HIF of 7.52. On the same count and under the same terms, the result for `CO/C=C(/C(=O)OC)c1ccccc1COc1cc(/C=N/OCc2ccc(C)cc2)ccc1OC` [Compound 58, (E)-methyl 2-(2-((2-methoxy-5-((E)-1-(4-methylbenzyloxyimino)methyl)-phenoxy)methyl)phenyl)-3-methoxyacrylate] reads 5.90; that for `CO/C=C(/C(=O)OC)c1ccccc1COc1cc(C)c(/C=N/OCCCOc2ccccc2)cc1C` [Compound 71, (E)-methyl 2-(2-((2,5-dimethyl-4-((E)-(3-phenoxypropyloxyimino)-methyl)phenoxy)methyl)phenyl)-3-methoxyacrylate], 7.70; that for `CO/C=C(/C(=O)OC)c1ccccc1COc1cc(F)cc(OCc2ccccc2)c1` [Compound 21, (E)-methyl 2-(2-((3-(benzyloxy)-5-fluorophenoxy)methyl)phenyl)-3-methoxyacrylate], 6.31. Regarding `CCCO/N=C(\C)c1ccc(OCc2ccccc2/C(=C\OC)C(=O)OC)cc1` [Compound 8, (E)-methyl 2-(2-((4-((E)-1-(propoxyimino)ethyl)phenoxy)methyl)phenyl)-3-methoxyacrylate], the pIC50 in the assay on HIF is 5.95.

In the case of `CO/C=C(/C(=O)OC)c1ccccc1COc1cc(C)c(/C(C)=N/OC)cc1C` [Compound 77, (E)-methyl 2-(2-((2,5-dimethyl-4-((E)-1-(methoxyimino)ethyl)phenoxy)-methyl)phenyl)-3-methoxyacrylate], the negative logarithm of the IC50 (pIC50) with HIF was 7.70. The same measure, in the same setting: the value for `CO/C=C(/C(=O)OC)c1ccccc1COc1ccc(/C=N/OC2CCCC2)cc1C` [Compound 70, (E)-methyl 2-(2-((4-((E)-(cyclopentyloxyimino)methyl)-2-methylphenoxy)methyl)phenyl)-3-methoxyacrylate] was 6.74; that for `CO/C=C(/C(=O)OC)c1ccccc1COc1ccc(/C=N/OCCc2ccccc2)cc1C` [Compound 59, (E)-methyl 2-(2-((2-methyl-4-((E)-(phenylethoxyimino)methyl)phenoxy)-methyl)phenyl)-3-methoxyacrylate] was 6.58.
